In patent publication US11554127B2, “Synergistic antitumor effect of Bcl-2 inhibitor combined with rituximab and/or bendamustine or Bcl-2 inhibitor combined with CHOP” (ASCENTAGE PHARMA (SUZHOU) CO., LTD., priority 2018, dated 2023):
Like-named read-outs stand apart in the source and are kept apart here.

How the values were obtained:
[1] = system: human Toledo (DLBCL) mouse xenograft tumor; format: in vivo; conditions: Compound 6 100 mg/kg p.o. qd×14 days; rituximab 4 mg/kg i.v. qw; day 15
Method: (§1) All animal experiments were strictly in accordance with the laboratory animal use and management practices of GenePharma Co., Ltd. and Ascentage Pharma Group Co., Ltd. The calculation of relevant parameters referred to the Chinese CFDA “Guidelines for Non-Clinical Research Techniques of Cytotoxic Antitumor Drugs”.
(§2) The animal body weight and tumor size were measured twice weekly during the experiment. The conditions and death of the animals were observed every day. Routine monitoring included the effects of tumor growth and treatment on normal animal behaviors, including activity, feeding and drinking situations, weight gain or loss, eyes, coat and other abnormalities in the experimental animals. The deaths and clinical symptoms observed during the experiment were recorded in the raw data. The entire operations of administration, measurement of mouse body weight and tumor volume were performed in a clean bench. Plasma and tumor tissues were collected, weighed and photographed after the end of the last administration according to the experimental protocol. Plasma and tumor samples were snap frozen and stored at −80° C.
(§3) Tumor volume (TV) was calculated as: TV=a×b2/2, in which a and b represented the length and width of the tumor as measured, respectively. The relative tumor volume (RTV) was calculated as: RTV=Vt/V1, in which V1 was the tumor volume at the time of grouping and administration, and Vt was the tumor volume measured on a day after administration. […] Change of body weight %=(measured body weight−body weight at the time of grouping)/body weight at the time of grouping×100%.
(§4) If the synergy factor was >1, there was a synergistic effect; if the synergistic factor=1, there was an additive effect; if the synergistic factor <1, there was an antagonistic effect.

OCI-LY8 cells = assay: in vitro experiment, sensitivity of OCI-LY8 cells; format: cell-based; conditions: OCI-LY8 human DLBCL cell line
Method: (1) The experimental method was as described in Example 1. In the in vitro experiment, OCI-LY8 cells were also human DLBCL cell lines sensitive to Compound 6 treatment, with an IC50 value of 0.006±0.002 μM. Therefore, this experiment used OCI-LY8 cells to establish a mouse xenograft tumor model (A. Esteve-Arenys et al. The BET bromodomain inhibitor CP1203 overcomes resistance to ABT-199 (venetoclax) by downregulation of BFL-1/A1 in in vitro and in vivo models of MYC+/BCL2+ double hit lymphoma. Oncogene 37(14). January 2018), and thereby evaluated the anti-tumor effect of Compound 6 in combination with rituximab.

[2] = system: human DOHH2 (FL) mouse xenograft tumor; format: in vivo; conditions: day 15; for Tumor remission on the 15th day after administration: CR: animals with CR/group; for Tumor remission on the 15th day after administration: PR: animals with PR/group
Method: as §1, §2, §3, §4
CHOP included: cyclophosphamide, 20 mg/kg, intraperitoneal injection, administered on the 1st and 9th days; doxorubicin, 2 mg/kg, intravenous injection, administered on the 1st day; vincristine, 0.1 mg/kg, intravenous injection, administered on the 1st and 9th days; prednisone, 0.5 mg/kg, orally administered on the 1st day. […] The injected dose was 10 mL/kg (0.2 mL/mouse). The agent was dissolved in saline. […] The agent was dissolved in saline. Vincristine (batch number 0708v1) was purchased from Shenzhen Main Luck Pharmaceuticals Inc. Vincristine was administered by intravenous injection at a dose of 10 mL/kg (0.2 mL/mouse). The agent was dissolved in saline. Prednisone (batch number M0412A) was purchased from Dalian Meilun Biotechnology Co., Ltd. Prednisone was administered by oral gavage at a dose of 10 mL/kg (0.2 mL/mouse). […] The dosage formulations were prepared freshly prior to use. The preparation and use of the dosage formulations were always carried out under sterile conditions.

DOHH2 = assay: in vitro cell experiments, sensitivity of DOHH2 cell line; format: cell-based; conditions: DOHH2 human follicular lymphoma cell line
[3] = system: human OCI-LY8 (DLBCL) mouse xenograft tumor; format: in vivo
Method: as §1, §2, §3, §4
Bendamustine was an FDA approved drug for the treatment of B-cell non-Hodgkin's lymphoma.

Toledo = assay: in vitro cell experiments, sensitivity of Toledo cell line; format: cell-based; conditions: Toledo human DLBCL cell line
[4] = Table 4: Cpd. 6 100 mg/kg p.o. qd, bendamustine 25 mg/kg, rituximab 10 mg/kg
[5] = Table 4: Cpd. 6 100 mg/kg, bendamustine 25 mg/kg, rituximab 10 mg/kg
[6] = Table 5: Cpd. 6 100 mg/kg, CHOP regimen
[7] = Cpd. 6 25 mg/kg p.o. qd×15d, day 11
[8] = Cpd. 6 50 mg/kg p.o. qd×15d, alone or + rituximab 4 mg/kg i.v. qw×2 wks, day 11
[9] = Cpd. 6 100 mg/kg p.o. qd×15d, alone or + rituximab 4 mg/kg i.v. qw×2 wks, day 11
[10] = Table 3: Cpd. 6 100 mg/kg p.o. qd, bendamustine 25 mg/kg i.v., rituximab 10 mg/kg i.v., day 11
[11] = rituximab alone 4 mg/kg i.v. qw×2 wks, day 11

`O=C(NS(=O)(=O)c1ccc(NC[C@H]2COCCO2)c([N+](=O)[O-])c1)c1ccc(N2CCN(CC3=C(c4ccc(Cl)cc4)CC4(CCC4)CC3)CC2)cc1Oc1cnc2[nH]ccc2c1` [Compound 6, (S)-N-((4-(((1,4-dioxan-2-yl)methyl)amino)-3-nitrophenyl)sulfonyl)-2-((1H-pyrrolo[2,3-b]pyridin-5-yl)oxy)-4-(4-((6-(4-chlorophenyl)spiro[3.5]non-6-en-7-yl)methyl)piperazin-1-yl)benzamide] was tested, and the “RTV on the 15th day after administration (mean ± standard error)” value [1] was 4.93 ± 0.41 ^, the “T/C (%) on the 15th day after administration” value (“T/C (%) on the 15th day” below) [1] was 38% and the IC50 (OCI-LY8 cells) was 0.006 ± 0.002 µM. The “RTV on the 15th day after administration (mean ± standard error)” value [2, 4] was 3.06 ± 0.79, the “T/C (%) on the 15th day” value [2, 4] was 28% and the “Tumor remission rate on the 15th day after administration %” value [2, 5] was 0%. The “Tumor remission on the 15th day after administration: CR” value [2, 5] was 0/5, the “Tumor remission on the 15th day after administration: PR” value [2, 5] was 0/5 and the “RTV on the 15th day after administration (mean ± standard error)” value ([2]; Table 5: Cpd. 6 100 mg/kg, CHOP (cyclophosphamide 20 mg/kg i.p. d1, d9; doxorubicin 2 mg/kg i.v. d1; vincristine 0.1 mg/kg i.v. d1, d9; prednisone 0.5 mg/kg p.o. d1)) was 3.06 ± 0.79. The “T/C (%) on the 15th day” value [2, 6] was 28%, the “Tumor remission rate on the 15th day after administration %” value [2, 6] was 0% and the “Tumor remission on the 15th day after administration: CR” value [2, 6] was 0/5. The “Tumor remission on the 15th day after administration: PR” value [2, 6] was 0/5, the “sensitivity of cell line to Compound 6 treatment” value (DOHH2) was “relatively sensitive” and the “RTV on the 11th day after administration (mean ± standard error)” value [3, 7] was 6.87 ± 2.1 **^. For the same compound, the “T/C (%) on the 11th day after administration” value (shortened to “T/C (%) on the 11th day”) [3, 7] was 37%, the “Tumor status on the 11th day after administration (remission rate %)” value (shortened to “Tumor status … (remission rate %)”) [3, 7] was 0% and the “Tumor status on the 11th day after administration: CR” value (“Tumor status on the 11th day … CR” for short) ([3]; Cpd. 6 25 mg/kg p.o. qd×15d, day 11, animals with CR/group) was 0/5 CR,. For the same compound, the “Tumor status on the 11th day after administration: PR” value (“Tumor status on the 11th day … PR” for short) ([3]; Cpd. 6 25 mg/kg p.o. qd×15d, day 11, animals with PR/group) was 0/5, the “RTV on the 11th day after administration (mean ± standard error)” value [3, 8] was 6.19 ± 1.86 and the “T/C (%) on the 11th day” value [3, 8] was 33%. The “Tumor status … (remission rate %)” value ([3]; Cpd. 6 50 mg/kg, alone or + rituximab 4 mg/kg, day 11) was 0%, the “Tumor status on the 11th day … CR” value ([3]; Cpd. 6 50 mg/kg, alone or + rituximab 4 mg/kg, day 11, animals with CR/group) was 0/5 CR, and the “Tumor status on the 11th day … PR” value ([3]; Cpd. 6 50 mg/kg, alone or + rituximab 4 mg/kg, day 11, animals with PR/group) was 0/5. For the same compound, the “RTV on the 11th day after administration (mean ± standard error)” value [3, 9] was 5.54 ± 1.78, the “T/C (%) on the 11th day” value [3, 9] was 30% and the “Tumor status … (remission rate %)” value ([3]; Cpd. 6 100 mg/kg, alone or + rituximab 4 mg/kg, day 11) was 0%. For the same compound, the “Tumor status on the 11th day … CR” value ([3]; Cpd. 6 100 mg/kg, alone or + rituximab 4 mg/kg, day 11, animals with CR/group) was 0/5 CR,, the “Tumor status on the 11th day … PR” value ([3]; Cpd. 6 100 mg/kg, alone or + rituximab 4 mg/kg, day 11, animals with PR/group) was 0/5 and the “RTV on the 11th day after administration (mean ± standard error)” value [3, 10] was 5.54 ± 1.78. The “T/C (%) on the 11th day” value [3, 10] was 30%, the “On the 11th day after administration (remission rate %)” value ([3]; Table 3: Cpd. 6 100 mg/kg, bendamustine 25 mg/kg, rituximab 10 mg/kg, day 11) was 0% and the “On the 11th day after administration: CR” value ([3]; Table 3: Cpd. 6 100 mg/kg, bendamustine 25 mg/kg, rituximab 10 mg/kg, day 11, animals with CR/group) was 0/5 CR,. The “On the 11th day after administration: PR” value ([3]; Table 3: Cpd. 6 100 mg/kg, bendamustine 25 mg/kg, rituximab 10 mg/kg, day 11, animals with PR/group) was 0/5 and the IC50 (Toledo) was 0.049 ± 0.005 µM.

Rituximab [reference compound] was tested, and the “RTV on the 15th day after administration (mean ± standard error)” value [1] was 8.99 ± 2.15 ^, the “T/C (%) on the 15th day” value [1] was 69% and the “RTV on the 11th day after administration (mean ± standard error)” value [3, 11] was 1.38 ± 0.69. The “T/C (%) on the 11th day” value [3, 11] was 7%, the “Tumor status … (remission rate %)” value ([3]; rituximab alone 4 mg/kg, day 11) was 80% and the “Tumor status on the 11th day … CR” value ([3]; rituximab alone 4 mg/kg, day 11, animals with CR/group) was 0/5 CR,. For the same compound, the “Tumor status on the 11th day … PR” value ([3]; rituximab alone 4 mg/kg, day 11, animals with PR/group) was 4/5, the “Tumor status on the 11th day … PR” value ([3]; rituximab alone 4 mg/kg, day 11, animals with PR/group, listed as rituximab) was “Four out of five” and the “RTV on the 22nd day after administration (mean ± standard error)” value ([3]; rituximab alone 4 mg/kg, day 22, after drug discontinuance) was 20.04 ± 5.38 ^.
